# Measurements: patent US6001997A, “Cephalosporins and homologues, preparations and pharmaceutical compositions” (priority 1990, dated 1999)
# Structures can show the parent of a compound that is named as a salt. Where two headings read alike, the source gives them in different places.
# Legend:
# [1] = system: E. coli (NCTC 1048); assay: MIC values (minimum inhibitory concentration) against a sample E.coli organism; type: cell-based
# Excerpt: (§1) The following Examples illustrate the preparation of compounds of the invention and intermediates thereto.
# [2] = system: S. aureus (Oxford); assay: MIC values (minimum inhibitory concentration) against a sample S.aureus organism; type: cell-based; details: in vitro
# Excerpt: as §1
# [3] = Escherichia coli, NCTC1048, in vitro, E. coli (NCTC 1048), read-out: MIC
# [4] = Staphylococcus aureus, read-out: MIC
Molecule,"MIC [1, 3] [µg/mL]","MIC [2, 4] [µg/mL]","MIC ([1]; Escherichia coli, NCTC1048) [µg/mL]","MIC ([1]; in vitro, E. coli (NCTC 1048)) [µg/mL]",MIC [2] [µg/mL]
"CO/N=C(\C(=O)N[C@@H]1C(=O)N2C(C(=O)O)=C([C@H]3CCCO3)CS[C@H]12)c1csc(N)n1 [Example 9, sodium (6R,7R)-7-[2-(2-aminothiazol-4-yl)-2-(Z)-methoxy-iminoacetamido]-3-[(R)-tetrahydrofuran-2-yl]ceph-3-em-4-carboxylate]",1,0.5,,,
"N[C@@H](C(=O)N[C@@H]1C(=O)N2C(C(=O)[O-])=C([C@@H]3CCCO3)CS[C@H]12)c1ccc(O)cc1.[Na+] [Example 22, Sodium (6R,7R)-7-[(R)-2-Amino-2-(4-hydroxyphenyl)acetamido]-3-[(S)-tetrahydrofuran-2-yl]ceph-3-em-4-carboxylate]",,0.25,8,,
"CC/C=C(\C(=O)N[C@@H]1C(=O)N2C(C(=O)O)=C([C@@H]3CCCO3)CS[C@H]12)c1csc(N)n1 [Example 18, sodium (6R,7R)-7-[2-(2-aminothiazol-4-yl)-(Z)-pent-2-enamido]-3-[(S)-tetrahydrofuran-2-yl]ceph-3-em-4-carboxylate]",16,1,,,
"CO/N=C(\C(=O)N[C@@H]1C(=O)N2C(C(=O)O)=C(C3CCCO3)CS[C@H]12)c1csc(N)n1 (stereo partly drawn) [Example 1, Sodium (6R,7R)-7-[2-(2-Aminothiazol-4-yl)-2-(Z)-methoxy-iminoacetamido]-3-[(RS)-tetrahydrofuran-2-yl]ceph-3-em-4-carboxylate]",0.5,1,,,
"Nc1nc(/C(=N/OCC(=O)O)C(=O)N[C@@H]2C(=O)N3C(C(=O)O)=C(C4CCCO4)CS[C@H]23)cs1 (stereo partly drawn) [Example 21, (6R,7R)-7-[2-(2-aminothiazol-4-yl)-2-(Z)-carboxymethoxy-iminoacetamido]-3-[(RS)-tetrahydrofuran-2-yl]-ceph-3-em-4-carboxylic acid, disodium salt]",0.25,8,,,
"CO/N=C(\C(=O)N[C@@H]1C(=O)N2C(C(=O)[O-])=C(C3CC[C@@H](C)O3)CS[C@H]12)c1csc(N)n1.[Na+] (mixture of isomers) [Example 27, Sodium (6R,7R)-7-12-(2-aminothiazol-4-yl)-2-(Z)-methoxy-iminoacetamidol-3-[(5R,2SR)-5-methyltetrahydrofuran-2-yl]ceph-3-em-4-carboxylate]",,,,4.00,1.00
CO/N=C(\C(=O)N[C@@H]1C(=O)N2C(C(=O)O)=C(C3CCOC3)CS[C@H]12)c1csc(N)n1 (some centres unmarked) [Example 13],1,4,,,
"CO/N=C(\C(=O)N[C@@H]1C(=O)N2C(C(=O)[O-])=C(C3CCCCO3)CS[C@H]12)c1csc(N)n1.[Na+] (mixture of isomers) [Example 3, Sodium (6R,7R)-7-[2-(2-Aminothiazol-4-yl)-2-(Z)-methoxyiminoacetamido]-3-[(RS) -tetrahydropyran-2-yl]-ceph-3-em-4-carboxylate]",,1,2,,
"COC[C@@H]1CCC(C2=C(C(=O)O)N3C(=O)[C@@H](NC(=O)/C(=N\OC)c4csc(N)n4)[C@H]3SC2)O1 (stereo partly drawn) [Example 17, sodium (6R,7R)-7-[2-(2-aminothiazol-4-yl)-2-(Z)-methoxyiminoacetamido]-3-(5-methoxymethyltetrahydrofuran-2-yl)ceph-3-em-4-carboxylate]",1,2,,,
"CO/N=C(\C(=O)N[C@@H]1C(=O)N2C(C(=O)O)=C([C@@H]3CCCO3)CS[C@H]12)c1csc(N)n1 [Example 7, Sodium (6R,7R)-7-[2-(2-aminothiazol-4-yl)-2-(Z)-methoxy-iminoacetamido]-3-[(S)-tetrahydrofuran-2-yl]ceph-3-em-4-carboxylate]",0.5,1,,,
"Nc1nc(/C(=N/O)C(=O)N[C@@H]2C(=O)N3C(C(=O)O)=C(C4CCCO4)CS[C@H]23)cs1 (stereo partly drawn) [Example 5, (6R,7R)-7-[2-(2-Aminothiazol-4-yl)-2-(Z)-hydroxyiminoacet-amido]-3-[(RS)-tetrahydrofuran-2-yl]ceph-3-em-4-carboxylic acid]",0.5,0.25,,,
sodium 7- [2- (2-aminothiazol-4-yl)-2- (Z)-methoxyimino-acetamido]-3- (tetrahydrofuran-2-yl) -1-carba-1-dethiaceph-3-em-4-carboxylate [Example 24],,,,0.12,1.00
"CO/N=C(\C(=O)N[C@@H]1C(=O)N2C(C(=O)O)=C([C@@H]3CCCO3)CS[C@H]12)c1ccco1 [Example 28, Sodium (6R,7R)-7-[2-(furan-2-yl)-2-(Z)-methoxyimino-acetamido]-3-[(S)-tetrahydrofuran-2-yl]ceph-3-em-4-carboxylate]",> 32,0.5,,,
